Target: hTREM2 (Homo sapiens, UniProt Q9NZC2)
Assay: TREM2 activity by cellular Syk phosphorylation (AlphaScreen/AlphaLISA) in TREM2/DAP12-HEK cells, used for Examples 1-305
Type: cell-based
Parameters: expressed in transfected cells
Conditions: HEK293 Cells
Outline: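 Phospho-Syk (Tyr525/526) over total Syk quantified by AlphaScreen in lysates of cloned TREM2/DAP12-overexpressing HEK293 cells after 45 min compound treatment at room temperature, 1% final DMSO. Values expressed relative to 100 nM anti-TREM2 antibody (positive) and isotype IgG (negative) controls; curves fitted with 4-parameter logistic model.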

hTREM2, sequence (Q9NZC2 19-230): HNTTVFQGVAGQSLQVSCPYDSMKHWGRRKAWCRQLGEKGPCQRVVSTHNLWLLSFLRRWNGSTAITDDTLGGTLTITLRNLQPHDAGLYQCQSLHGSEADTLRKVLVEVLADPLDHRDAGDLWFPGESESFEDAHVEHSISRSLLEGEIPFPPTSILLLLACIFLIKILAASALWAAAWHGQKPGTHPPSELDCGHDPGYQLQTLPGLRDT
hTREM2, sequence (O43914 22-113 partner): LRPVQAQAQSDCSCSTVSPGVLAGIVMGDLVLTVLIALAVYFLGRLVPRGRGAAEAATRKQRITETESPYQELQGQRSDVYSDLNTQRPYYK

EC50 | hTREM2 Emax | Compound
0.5 to 3 µM | +++ (Emax>150 and ≤250) | Cc1nc2nc(N3CCO[C@@H]([C@H]4CCOC4)C3)nc(-c3ccc(F)cc3F)c2nc1C [Example 251, (S)-4-(4-(2,4-difluorophenyl)-6,7-dimethylpteridin-2-yl)-2-((S)-tetrahydrofuran-3-yl)morpholine]
≤ 0.05 µM | +++ (Emax>150 and ≤250) | Cc1cc([C@@H]2C[C@H](c3nc(-c4ccc(F)cc4F)c4nc(C)c(C)nc4n3)CCO2)ccn1 [Example 252, 4-(2,4-difluorophenyl)-6,7-dimethyl-2-((2S,4R)-2-(2-methylpyridin-4-yl)tetrahydro-2H-pyran-4-yl)pteridine]
3 to 100 µM | +++ (Emax>150 and ≤250) | Cc1cnc2c(-c3ccc(F)cc3F)nc(N3CCO[C@H]([C@@H]4CCOC4)C3)nc2n1 [Example 253, (R)-4-(4-(2,4-difluorophenyl)-7-methylpteridin-2-yl)-2-((R)-tetrahydrofuran-3-yl)morpholine]
0.05 to 0.5 µM | +++ (Emax>150 and ≤250) | Cc1nc2nc(N3CCO[C@@H](c4cnn(C)c4)C3)nc(C3=CCC(C(F)(F)F)CC3)c2nc1C (stereo partly drawn) [Example 254, (2S)-4-(6,7-dimethyl-4-(4-(trifluoromethyl)cyclohex-1-en-1-yl)pteridin-2-yl)-2-(1-methyl-1H-pyrazol-4-yl)morpholine]
0.5 to 3 µM | ++ (Emax>100 and ≤150) | Cc1nc2nc([C@@H]3CCO[C@H](c4cnn(C)c4)C3)cc(-c3ccc(F)cc3F)c2nc1C [Example 255, 8-(2,4-difluorophenyl)-2,3-dimethyl-6-((2S,4R)-2-(1-methyl-1H-pyrazol-4-yl)tetrahydro-2H-pyran-4-yl)pyrido[2,3-b]pyrazine]
0.5 to 3 µM | ++ (Emax>100 and ≤150) | Cc1nc2nc([C@@H]3CCO[C@H](c4cnn(C)c4)C3)nc(-c3ccc(F)cc3F)c2nc1C [Example 256, 4-(2,4-difluorophenyl)-6,7-dimethyl-2-((2S,4R)-2-(1-methyl-1H-pyrazol-4-yl)tetrahydro-2H-pyran-4-yl)pteridine]
0.5 to 3 µM | ++ (Emax>100 and ≤150) | Cc1nc2cc([C@@H]3CCO[C@H](c4cnn(C)c4)C3)nc(-c3ccc(F)cc3F)c2nc1C [Example 257, 5-(2,4-difluorophenyl)-2,3-dimethyl-7-((2S,4R)-2-(1-methyl-1H-pyrazol-4-yl)tetrahydro-2H-pyran-4-yl)pyrido[3,4-b]pyrazine]
0.5 to 3 µM | +++ (Emax>150 and ≤250) | Cc1ccc(-c2nc([C@@H]3CCO[C@H](c4cnn(C)c4)C3)cc3nc(C)c(C)nc23)c(F)c1 [Example 258, 5-(2-fluoro-4-methylphenyl)-2,3-dimethyl-7-((2S,4R)-2-(1-methyl-1H-pyrazol-4-yl)tetrahydro-2H-pyran-4-yl)pyrido[3,4-b]pyrazine]
≤ 0.05 µM | ++++ (Emax>250) | Cc1cc([C@@H]2CN(c3nc(-c4ccc(Cl)cc4F)c4ccc(C)nc4n3)CCO2)cnn1 [Example 259, (R)-4-(4-(4-chloro-2-fluorophenyl)-7-methylpyrido[2,3-d]pyrimidin-2-yl)-2-(6-methylpyridazin-4-yl)morpholine]
0.5 to 3 µM | +++ (Emax>150 and ≤250) | Cc1ccc2c(-c3ccc(Cl)cc3F)nc([C@@H]3CCO[C@H](c4cnn(C5CC5)c4)C3)nc2n1 [Example 260, 4-(4-chloro-2-fluorophenyl)-2-((2S,4R)-2-(1-cyclopropyl-1H-pyrazol-4-yl)tetrahydro-2H-pyran-4-yl)-7-methylpyrido [2,3-d]pyrimidine]
0.5 to 3 µM | +++ (Emax>150 and ≤250) | Cc1cnc2c(-c3ccc(Cl)cc3F)nc(N3CCO[C@H](c4cnc(C)nc4)C3)nc2n1 [Example 261, (R)-4-(4-(4-chloro-2-fluorophenyl)-7-methylpteridin-2-yl)-2-(2-methylpyrimidin-5-yl)morpholine]
3 to 100 µM |  | Cc1nc2nc(N3CCO[C@H](c4cnn(C)c4)C3)nc(N3CCC[C@@H](F)C3)c2nc1C [Example 262, (R)-4-(4-((R)-3-fluoropiperidin-1-yl)-6,7-dimethylpteridin-2-yl)-2-(1-methyl-1H-pyrazol-4-yl)morpholine]
0.5 to 3 µM | +++ (Emax>150 and ≤250) | Cc1nc2nc([C@H]3CCO[C@H](c4cnn(C)c4)C3)nc(-c3ccc(F)cc3F)c2nc1C [Example 263, 4-(2,4-difluorophenyl)-6,7-dimethyl-2-((2S,4S)-2-(1-methyl-1H-pyrazol-4-yl)tetrahydro-2H-pyran-4-yl)pteridine]
0.5 to 3 µM | ++++ (Emax>250) | Cc1ccc(-c2nc([C@H]3CCO[C@H](c4cnn(C)c4)C3)nc3nc(C)c(C)nc23)c(F)c1 [Example 264, 4-(2-fluoro-4-methylphenyl)-6,7-dimethyl-2-((2S,4S)-2-(1-methyl-1H-pyrazol-4-yl)tetrahydro-2H-pyran-4-yl)pteridine]
0.5 to 3 µM | +++ (Emax>150 and ≤250) | Cc1nc2nc([C@H]3CCO[C@H](c4cnn(C)c4)C3)cc(-c3ccc(F)cc3F)c2nc1C [Example 265, 8-(2,4-difluorophenyl)-2,3-dimethyl-6-((2S,4S)-2-(1-methyl-1H-pyrazol-4-yl)tetrahydro-2H-pyran-4-yl)pyrido[2,3-b]pyrazine]
0.5 to 3 µM | ++++ (Emax>250) | Cc1ccc(-c2cc([C@H]3CCO[C@H](c4cnn(C)c4)C3)nc3nc(C)c(C)nc23)c(F)c1 [Example 266, 8-(2-fluoro-4-methylphenyl)-2,3-dimethyl-6-((2S,4S)-2-(1-methyl-1H-pyrazol-4-yl)tetrahydro-2H-pyran-4-yl)pyrido[2,3-b]pyrazine]
0.5 to 3 µM | ++ (Emax>100 and ≤150) | Cc1cc2c(-c3ccc(F)cc3F)nc([C@@H]3CCO[C@@H](c4cnn(C)c4)C3)nc2nc1C [Example 267, 4-(2,4-difluorophenyl)-6,7-dimethyl-2-((2R,4R)-2-(1-methyl-1H-pyrazol-4-yl)tetrahydro-2H-pyran-4-yl)pyrido[2,3-d]pyrimidine]
0.5 to 3 µM | ++++ (Emax>250) | Cc1ccc(-c2nc([C@@H]3CCO[C@@H](c4cnn(C)c4)C3)nc3nc(C)c(C)cc23)c(F)c1 [Example 268, 4-(2-fluoro-4-methylphenyl)-6,7-dimethyl-2-((2R,4R)-2-(1-methyl-1H-pyrazol-4-yl)tetrahydro-2H-pyran-4-yl)pyrido[2,3-d]pyrimidine]
3 to 100 µM | + (Emax>45 and ≤100) | Cc1nc2nc(N3CCO[C@@H](c4cnn(C)c4)C3)nc(N3CC(C(F)F)C3)c2nc1C [Example 269, (S)-4-(4-(3-(difluoromethyl)azetidin-1-yl)-6,7-dimethylpteridin-2-yl)-2-(1-methyl-1H-pyrazol-4-yl)morpholine]
0.5 to 3 µM | +++ (Emax>150 and ≤250) | Cc1cnc2c(-c3ccc(Cl)cc3F)nc([C@@H]3CCO[C@H](c4cnn(C5CC5)c4)C3)nc2n1 [Example 270, 4-(4-chloro-2-fluorophenyl)-2-((2S,4R)-2-(1-cyclopropyl-1H-pyrazol-4-yl)tetrahydro-2H-pyran-4-yl)-7-methylpteridine]
3 to 100 µM | +++ (Emax>150 and ≤250) | Cc1cnc2c(-c3ccc(Cl)cc3F)cc([C@@H]3CCO[C@H](c4cnn(C)c4)C3)nc2n1 [Example 271, 8-(4-chloro-2-fluorophenyl)-3-methyl-6-((2S,4R)-2-(1-methyl-1H-pyrazol-4-yl)tetrahydro-2H-pyran-4-yl)pyrido [2,3-b]pyrazine]
≤ 0.05 µM | ++++ (Emax>250) | Cc1cc([C@@H]2C[C@@H](c3nc(-c4ccc(Cl)cc4F)c4nc(C)c(C)nc4n3)CCO2)ccn1 [Example 272, 4-(4-chloro-2-fluorophenyl)-6,7-dimethyl-2-((2S,4S)-2-(2-methylpyridin-4-yl)tetrahydro-2H-pyran-4-yl)pteridine]
≤ 0.05 µM | +++ (Emax>150 and ≤250) | Cc1cc([C@H]2C[C@H](c3nc(-c4ccc(Cl)cc4F)c4nc(C)c(C)nc4n3)CCO2)ccn1 [Example 273, 4-(4-chloro-2-fluorophenyl)-6,7-dimethyl-2-((2R,4R)-2-(2-methylpyridin-4-yl)tetrahydro-2H-pyran-4-yl)pteridine]
3 to 100 µM | ++ (Emax>100 and ≤150) | Cc1cnc2c(n1)nc(N1CCO[C@@H](c3cnn(C)c3)C1)nc2[C@H]1C[C@@H](C(F)(F)F)C1 [Example 274, (S)-2-(1-methyl-1H-pyrazol-4-yl)-4-(7-methyl-4-((1s,3R)-3-(trifluoromethyl)cyclobutyl)pteridin-2-yl)morpholine]
3 to 100 µM | + (Emax>45 and ≤100) | Cc1ccc2c(n1)nc(N1CCO[C@@H](c3cnn(C)c3)C1)nc2[C@H]1C[C@@H](C(F)(F)F)C1 [Example 275, (S)-2-(1-methyl-1H-pyrazol-4-yl)-4-(7-methyl-4-((1s,3R)-3-(trifluoromethyl)cyclobutyl)pyrido[2,3-d]pyrimidin-2-yl)morpholine]
0.5 to 3 µM | +++ (Emax>150 and ≤250) | Cc1cc([C@H]2C[C@H](c3nc(-c4ccc(F)cc4F)c4ccc(C)nc4n3)CCO2)ccn1 [Example 278, 4-(2,4-difluorophenyl)-7-methyl-2-((2R,4R)-2-(2-methylpyridin-4-yl)tetrahydro-2H-pyran-4-yl)pyrido [2,3-d]pyrimidine]
0.5 to 3 µM | +++ (Emax>150 and ≤250) | Cc1cc([C@H]2CN(c3nc4nc(C)cnc4c([C@H]4C[C@H](C(F)(F)F)C4)n3)CCO2)cnn1 [Example 279, (S)-4-(7-methyl-4-((1r,3S)-3-(trifluoromethyl)cyclobutyl)pteridin-2-yl)-2-(6-methylpyridazin-4-yl)morpholine]
0.5 to 3 µM | +++ (Emax>150 and ≤250) | Cc1cc([C@H]2CN(c3nc4nc(C)cnc4c([C@H]4C[C@@H](C(F)(F)F)C4)n3)CCO2)cnn1 [Example 280, (S)-4-(7-methyl-4-((1s,3R)-3-(trifluoromethyl)cyclobutyl)pteridin-2-yl)-2-(6-methylpyridazin-4-yl)morpholine]
